The text below walks through data of PMC9116648, “Synthesis and biological evaluation of thiazolidine-2-thione derivatives as novel xanthine oxidase inhibitors” (PLoS ONE, 2022).

Entries after “also recorded” stand apart in the source; their conditions may differ. Like-named read-outs stand apart in the source and are kept apart here.

What is called IC50 is the concentration needed to halve the response being measured. The term melting point denotes the temperature of the solid-liquid transition. The term Ki denotes a measure of affinity in units of concentration, obtained from inhibition or displacement. Lower therefore signals a stronger hold on the target.

Data set [1] concerns the target T1, Xanthine oxidase (XO) (Homo sapiens, UniProt P47989). Put plainly: In vitro XO inhibitory potency (enzyme catalysis reaction, OD 295 nm). The format is biochemical. Here is the method:
XO inhibitory activity was measured by enzyme catalysis reaction in vitro, with modifications. The XO solution (100 U/L) and xanthine solution (0.5 mmol/L) were prepared in PBS (10 mmol/L, pH = 7.4) and stored at 4°C. The test compounds were diluted to different concentrations with PBS. The enzyme catalysis reaction was performed in 96-well plates.

Data set [2] has as its target T1, Xanthine oxidase (XO). Put plainly: Enzyme inhibitory kinetics (Lineweaver-Burk plots). The format is biochemical. Here is the method:
The inhibitory mode of representative compound 6k was further investigated using enzyme inhibitory kinetic studies. XO solution (55 U/L) was mixed respectively with compound 6k (0, 5, 10, and 20 μmol/L) and incubated at 37°C for 5 min. Then, xanthine solution (0.25, 0.5, 1.0, and 2.0 mmol/L) were added to initiate the reaction at 37°C for 30 min. The reaction was carried out in a 96-well plate and the OD value were read using a microplate reader at 295 nm. The obtained data were analyzed using Microsoft Excel 2013 and transformed into Lineweaver-Burk plots using GraphPad Prism 7.0. In addition, the value of Ki and Kis could be calculated using GraphPad Prism 7.0.

Data set [3] deals with T1, Xanthine oxidase (XO). The following applies: literature statement; cited from earlier work.
The mark [4] stands for this setting: S1 Table, mean of three determinations, unit inferred, read-out: IC50 mean.
The mark [5] stands for this setting: S1 Table, single determination 1 of 3, unit inferred, read-out: IC50 (first replicate column).
[6] abbreviates: S1 Table, single determination 2 of 3, unit inferred, read-out: IC50 (second replicate column).
Setting [7] is: S1 Table, single determination 3 of 3, unit inferred, read-out: IC50 (third replicate column).
Where [8] appears, read: mean±SD, tested in triplicate, xanthine substrate, 37°C, PBS pH 7.4, read-out: IC50.

T1 sequence (P47989 whole entry, species assumed): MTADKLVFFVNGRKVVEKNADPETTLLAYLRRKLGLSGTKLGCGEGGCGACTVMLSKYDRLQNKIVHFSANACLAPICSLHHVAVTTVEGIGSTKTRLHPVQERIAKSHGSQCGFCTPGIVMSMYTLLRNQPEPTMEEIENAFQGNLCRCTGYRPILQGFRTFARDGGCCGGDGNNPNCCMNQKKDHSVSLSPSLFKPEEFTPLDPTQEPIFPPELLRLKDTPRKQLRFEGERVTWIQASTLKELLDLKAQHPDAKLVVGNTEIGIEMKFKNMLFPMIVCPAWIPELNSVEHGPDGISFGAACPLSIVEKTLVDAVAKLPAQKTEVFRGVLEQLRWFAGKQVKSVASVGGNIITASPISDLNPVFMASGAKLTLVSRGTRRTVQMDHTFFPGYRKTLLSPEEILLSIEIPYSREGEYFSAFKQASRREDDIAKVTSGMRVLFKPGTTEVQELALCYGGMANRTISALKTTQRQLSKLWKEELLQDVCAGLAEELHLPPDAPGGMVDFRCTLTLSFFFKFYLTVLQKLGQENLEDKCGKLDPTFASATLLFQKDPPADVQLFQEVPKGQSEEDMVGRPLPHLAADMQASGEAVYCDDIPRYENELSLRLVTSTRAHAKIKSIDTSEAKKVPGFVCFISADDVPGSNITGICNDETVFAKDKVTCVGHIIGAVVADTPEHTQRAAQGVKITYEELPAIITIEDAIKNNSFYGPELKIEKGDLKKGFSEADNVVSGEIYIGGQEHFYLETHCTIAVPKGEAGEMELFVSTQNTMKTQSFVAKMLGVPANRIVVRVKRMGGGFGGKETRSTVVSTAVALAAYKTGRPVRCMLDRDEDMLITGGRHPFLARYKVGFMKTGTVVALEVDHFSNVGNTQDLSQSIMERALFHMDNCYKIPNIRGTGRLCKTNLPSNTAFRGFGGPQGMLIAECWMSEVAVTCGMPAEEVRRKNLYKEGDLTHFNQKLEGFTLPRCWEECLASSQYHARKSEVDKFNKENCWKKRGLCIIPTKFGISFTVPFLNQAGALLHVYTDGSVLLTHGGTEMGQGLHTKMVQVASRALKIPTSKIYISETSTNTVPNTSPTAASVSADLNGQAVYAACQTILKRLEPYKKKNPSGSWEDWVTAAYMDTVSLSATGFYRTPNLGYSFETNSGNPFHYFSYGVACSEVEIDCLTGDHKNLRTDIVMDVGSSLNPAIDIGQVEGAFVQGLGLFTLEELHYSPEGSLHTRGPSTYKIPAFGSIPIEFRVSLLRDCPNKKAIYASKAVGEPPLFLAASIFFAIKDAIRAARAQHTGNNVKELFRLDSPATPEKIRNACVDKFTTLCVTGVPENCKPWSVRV

For `O=C(NS(=O)(=O)c1ccccc1)N1CCSC1=S` [Compound 6i, N-(phenylsulfonyl)-2-thioxothiazolidine-3-carboxamide], the melting point is 121 to 123 °C. Also, the IC50 in data set [1] (setting [4]) was determined as 5.19 µM. Also, the IC50 in data set [1] (setting [5]) was determined as 5.19 µM. In addition, in data set [1] (setting [6]), the IC50 was found to be 4.02 µM. The IC50 in data set [1] (setting [7]) is 6.35 µM. For the same molecule, the IC50 in data set [1] (setting [8]) was 5.19 ± 0.95 µM.

As for `CCCCNC(=O)N1CCSC1=S` [Compound 6c, N-butyl-2-thioxothiazolidine-3-carboxamide], the IC50 in data set [1] (setting [4]) came out at 30.5 µM; in data set [1] (setting [5]), 30.1 µM; in data set [1] (setting [6]) it was 33.5 µM; in data set [1] (setting [7]) it was 28 µM; in data set [1] (setting [8]), 30.5 ± 2.25 µM.

In the case of `S=C1SCCN1c1ccccc1` [Compound 4c, 3-phenyl-thiazolidine-2-thione], the IC50 in data set [1] (setting [4]) came out at 51.6 µM; in data set [1] (setting [5]), 49.4 µM; in data set [1] (setting [6]), 52.2 µM; in data set [1] (setting [7]), 53.3 µM; in data set [1] (setting [8]) it was 51.6 ± 1.64 µM.

The molecule `O=C(NC1CCCCC1)N1CCSC1=S` [Compound 6h, N-cyclohexyl-2-thioxothiazolidine-3-carboxamide] yielded a melting point of 114 to 115 °C. In data set [1] (setting [4]), the IC50 amounted to 9.87 µM. Further, the IC50 in data set [1] (setting [5]) amounted to 8.25 µM. Also, the IC50 in data set [1] (setting [6]) was 11.1 µM. In addition, the IC50 in data set [1] (setting [7]) was determined as 10.3 µM. For the same molecule, the IC50 in data set [1] (setting [8]) was 9.87 ± 1.19 µM.

Take `O=C(NS(=O)(=O)c1ccc(F)cc1)N1CCSC1=S` [Compound 6k, N-((4-fluorophenyl)sulfonyl)-2-thioxothiazolidine-3-carboxamide]: the IC50 was 3.56 µM in data set [1] (setting [4]); 3.19 µM in data set [1] (setting [5]); 4.42 µM in data set [1] (setting [6]); 3.06 µM in data set [1] (setting [7]); 3.56 ± 0.61 µM in data set [1] (setting [8]). Moreover, in data set [1] (ratio of IC50 values vs allopurinol), the “XO inhibitory potency relative to allopurinol (fold more potent)” value is listed as “approximately 2.5 fold”. For the same molecule, in data set [2] (Lineweaver-Burk plots), the “Mode of XO inhibition” value is recorded as “mixed-type XO inhibition; also recorded: mixed competitive inhibition; also recorded: mixed-type XO inhibitor”. Moreover, the “Intercept of Lineweaver-Burk plot” value was 1.487 in data set [2] (compound 6k 5 µmol/L), 2.126 in data set [2] (compound 6k 10 µmol/L) and 2.357 in data set [2] (compound 6k 20 µmol/L). In addition, the “Slope of Lineweaver-Burk plot” value in data set [2] (compound 6k 5 µmol/L) stood at 3.559; in data set [2] (compound 6k 10 µmol/L), 4.587; in data set [2] (compound 6k 20 µmol/L), 6.098. Further, the affinity in data set [2] (from secondary plot of Lineweaver-Burk slopes, XO 55 U/L) corresponds to a Ki of 7.08 µM.

Molecule `Cc1ccc(S(=O)(=O)NC(=O)N2CCSC2=S)cc1` [Compound 6j, N-((4-methylphenyl)sulfonyl)-2-thioxothiazolidine-3-carboxamide] came in with a melting point of 127 to 129 °C. In addition, in data set [1] (setting [4]), the IC50 was found to be 9.76 µM. The IC50 in data set [1] (setting [5]) worked out at 11.5 µM. Besides, in data set [1] (setting [6]), the IC50 stood at 8.48 µM. For the same molecule, in data set [1] (setting [7]), the IC50 was found to be 9.27 µM. The IC50 in data set [1] (setting [8]) was 9.76 ± 1.29 µM.

In the case of `Oc1ncnc2[nH]ncc12` [Allopurinol], the “Mode of XO inhibition” value in data set [3] was “competitive inhibition”.

Take `CCCNC(=O)N1CCSC1=S` [Compound 6b, N-propyl-2-thioxothiazolidine-3-carboxamide]: the IC50 was found to be 27.8 µM in data set [1] (setting [4]); 27.2 µM in data set [1] (setting [5]); 27.6 µM in data set [1] (setting [6]); 28.6 µM in data set [1] (setting [7]); 27.8 ± 0.63 µM in data set [1] (setting [8]).

In the case of `SC1=NCCS1` [Compound 3, thiazolidine-2-thione], the IC50 in data set [1] (setting [4]) is 72.2 µM; in data set [1] (setting [5]), 74.1 µM; in data set [1] (setting [6]) it was 72.3 µM; in data set [1] (setting [7]), 70.1 µM; in data set [1] (setting [8]), 72.2 ± 1.66 µM.

As to `O=C(Nc1ccccc1)N1CCSC1=S` [Compound 6e, N-phenyl-2-thioxothiazolidine-3-carboxamide], the melting point is 101 to 102 °C. The IC50 in data set [1] (setting [4]) came to 10.2 µM. Besides, in data set [1] (setting [5]), the IC50 stood at 10.6 µM. Besides, in data set [1] (setting [6]), the IC50 was determined as 8.38 µM. Moreover, in data set [1] (setting [7]), the IC50 turned out to be 11.7 µM. Further, the IC50 in data set [1] (setting [8]) turned out to be 10.2 ± 1.37 µM.

`O=C(Nc1cccnc1)N1CCSC1=S` [Compound 6g, N-(pyridin-3-yl)-2-thioxothiazolidine-3-carboxamide] had a melting point of 111 to 113 °C. Also, the IC50 in data set [1] (setting [4]) was found to be 14.5 µM. In data set [1] (setting [5]), the IC50 is 17.7 µM. For the same molecule, the IC50 in data set [1] (setting [6]) is 15.1 µM. Moreover, in data set [1] (setting [7]), the IC50 stood at 10.7 µM. Further, the IC50 in data set [1] (setting [8]) came out at 14.5 ± 2.9 µM.

In the case of `O=C(NCc1ccccc1)N1CCSC1=S` [Compound 6f, N-benzyl-2-thioxothiazolidine-3-carboxamide], the melting point was 107 to 109 °C. Besides, the IC50 in data set [1] (setting [4]) was 12.8 µM. For the same molecule, the IC50 in data set [1] (setting [5]) was 12.8 µM. Besides, the IC50 in data set [1] (setting [6]) came out at 14.8 µM. The IC50 in data set [1] (setting [7]) came to 10.8 µM. Also, the IC50 in data set [1] (setting [8]) came to 12.8 ± 1.6 µM.

`S=C1SCCN1Cc1ccccc1` [Compound 4d, 3-benzyl-thiazolidine-2-thione] came in with a melting point of 115 to 117 °C. In addition, the IC50 in data set [1] (setting [4]) worked out at 114 µM. Also, the IC50 in data set [1] (setting [5]) was found to be 122 µM. Moreover, the IC50 in data set [1] (setting [6]) amounted to 109 µM. The IC50 in data set [1] (setting [7]) was found to be 110 µM. Also, the IC50 in data set [1] (setting [8]) was above 100 µM.

Consider `CCCN1CCSC1=S` [Compound 4b, 3-propyl-thiazolidine-2-thione], for which the IC50 in data set [1] (setting [4]) was determined as 58.2 µM; in data set [1] (setting [5]), 50.5 µM; in data set [1] (setting [6]) it was 57.2 µM; in data set [1] (setting [7]) it was 66.8 µM; in data set [1] (setting [8]), 58.2 ± 6.71 µM.

As to `CCNC(=O)N1CCSC1=S` [Compound 6a, N-ethyl-2-thioxothiazolidine-3-carboxamide], the IC50 stood at 22.9 µM in data set [1] (setting [4]); 19.9 µM in data set [1] (setting [5]); 23.5 µM in data set [1] (setting [6]); 25.3 µM in data set [1] (setting [7]); 22.9 ± 2.24 µM in data set [1] (setting [8]).

Regarding `CCN1CCSC1=S` [Compound 4a, 3-ethyl-thiazolidine-2-thione], the IC50 in data set [1] (setting [4]) was 43.5 µM; in data set [1] (setting [5]), 43.4 µM; in data set [1] (setting [6]) it was 40.9 µM; in data set [1] (setting [7]), 46.3 µM; in data set [1] (setting [8]), 43.5 ± 2.18 µM.

With `CC(C)CNC(=O)N1CCSC1=S` [Compound 6d, N-isobutyl-2-thioxothiazolidine-3-carboxamide], the 50% inhibitory concentration (IC50) in data set [1] (setting [4]) is 19 µM; in data set [1] (setting [5]), 21 µM; in data set [1] (setting [6]), 17.7 µM; in data set [1] (setting [7]), 18.4 µM; in data set [1] (setting [8]), 19 ± 1.44 µM.

Regarding `Cc1nc(-c2ccc(OCC(C)C)c(C#N)c2)sc1C(=O)O` [Febuxostat, reference compound], the IC50 in data set [1] (IC50 (first replicate column), S1 Table, single determination 1 of 3, unit inferred) was 3.02 µM; in data set [1] (IC50 (second replicate column), S1 Table, single determination 2 of 3, unit inferred), 2.91 µM; in data set [1] (IC50 (third replicate column), S1 Table, single determination 3 of 3, unit inferred) it was 4.08 µM; in data set [1] (IC50, mean±SD, tested in triplicate, xanthine substrate, 37°C, PBS pH 7.4) it was 3.34 ± 0.53 µM; in data set [1] (IC50 mean, S1 Table, mean of three determinations, unit inferred), 3.34 µM.
